Here are results for 1 compound from patent publication US20240252529A1, “ANTIVIRAL PHARMACEUTICAL COMPOSITION” (MARINOMED BIOTECH AG, priority 2020, published 2024).

This assay deals with SARS-CoV-2 spike glycoprotein pseudotyped lentivirus. It is filed as cell-based. As to conditions: comparative polymers at 100 μg/ml; FIG. 3.

Turning to `O=C[C@H](O)[C@@H](O)[C@@H](OS(=O)(=O)O)[C@H](O)CO` [Gal-4-SO4, galactose-4-sulphate], the “protection of target cells against infection” value is “only poorly effective”.
